Data from article PMC12811658, “Design, Synthesis, and Structural Evolution of Pseudo‐Natural Product IDO1 Inhibitors and Degraders” (Angewandte Chemie (International Ed. in English), 2025).

Assays:
[1] = tested on: Kyn levels in BxPC3 cells (kynurenine generated by IDO1); assay: Cellular Kyn assay (automated Kyn screening assay); format: cell-based; conditions: Homo sapiens, BXPC-3, 48 h, IFN-γ, L-Trp and compounds 48 h, mean ± SD, read-out: IC50 (Kyn assay), reduction of kynurenine levels
SKOV-3 tumor = assay: SKOV-3 tumor-bearing mouse model; format: in vivo, NSG immunodeficient mice; conditions: 30 mg kg−1 IP twice daily
Procedure: Incubation at 37 °C for 3 h. Representative data for n = 3. c) Time‐course of heme displacement from IDO1 detected by the absorbance at the Soret peak (404 nm) as a function of time. […] All curves were fit using a one‐site model with N = 1 and defined IDO1 concentration. Left plots show baseline corrected data, while right plots show integrated binding isotherms versus iDegs/IDO1 ratio. IDO1 protein (125 µM) was titrated into the stirred sample cell containing iDegs (25 µM, except for iDeg‐8 at 50 µM). Representative data for n = 3, except for iDeg‐9 (n = 2). g)–i) In vivo activity of iDeg‐6. NSG immunodeficient mice were injected with SKOV‐3 cells. Mice were treated with 18 intraperitoneal injections of iDeg‐6 (30 mg kg^−1) or vehicle. The pharmacological treatment was twice daily. Tumor volume was determined weekly by digital caliper. g) SKOV‐3 tumor growth curves in iDeg‐6‐treated mice (n = 12, green lines) or vehicle‐treated mice (n = 13, gray lines). Statistical analysis was performed by two‐way ANOVA: ****p < 0.001. h) Body weight changes during treatment window (mean values ± range). i) Survival data are shown by Kaplan‐Meier survival analysis. Mantel–Haenszel statistical analysis: p < 0.0001).
The limited clinical efficacy of IDO1 inhibitors is likely due in part to its non‐enzymatic functions that are not targeted by catalytic inhibition.^[ [32], [33], [34], [35], [36], [37], [38] ^] […] SKOV‐3 cells were subsequently engrafted into NSG immunodeficient mice to establish a SKOV‐3 tumor‐bearing model (Figure S11a). Mice were treated with iDeg‐6 at a dose of 30 mg kg^−1, administered twice daily for 18 days.
NSG female mice (NOD.Cg-PrkdcSCIDIl2rgtm1Wjl/SzJ) were purchased from Charles River (Calco, Italia) with 10 weeks age. […] Tumor volume was determined weekly by digital caliper from 10 days after tumor challenging to the endpoint of the experiment (day 80). […] All animal experiments were under the Amsterdam Protocol on animal protection and welfare: mice were monitored daily and euthanized when displaying excessive discomfort.

C57Bl/6 mice = assay: Tolerability (dose escalation PO and IP); format: in vivo, male C57Bl/6 mice; conditions: for dose up to which no clinical signs were observed: dose escalation over 3-5 days
[2] = biological target: IDO1 protein levels in BxPC3 cells (Homo sapiens, UniProt P14902); assay: IDO1 immunoblotting (degradation); format: cell-based; design: endogenous in cells; host or cells: BxPC3 (DSMZ), IFN-γ stimulated; conditions: 24 h incubation, mean ± SD
Chain of IDO1 protein levels in BxPC3 cells (P14902 whole entry): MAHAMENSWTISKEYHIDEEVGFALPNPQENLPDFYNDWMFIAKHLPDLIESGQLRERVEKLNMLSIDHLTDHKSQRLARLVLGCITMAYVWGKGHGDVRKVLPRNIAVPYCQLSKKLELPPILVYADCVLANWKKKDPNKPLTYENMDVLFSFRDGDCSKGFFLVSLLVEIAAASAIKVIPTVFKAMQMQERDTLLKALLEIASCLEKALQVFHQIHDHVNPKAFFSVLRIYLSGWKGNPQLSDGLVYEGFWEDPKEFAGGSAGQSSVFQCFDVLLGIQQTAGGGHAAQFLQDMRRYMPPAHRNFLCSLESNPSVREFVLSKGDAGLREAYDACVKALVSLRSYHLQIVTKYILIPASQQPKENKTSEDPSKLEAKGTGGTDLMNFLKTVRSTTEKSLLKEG

In the case of `C#Cc1ccc(NC(=O)OC[C@]23CN(S(=O)(=O)c4ccc(C(C)(C)C)cc4C)C[C@H]2C[C@H]2C[C@@H]3C2(C)C)cc1` [98 (iDeg-6), ((3aS,4R,6R,7aS)-2-((4-(tert-butyl)-2-methylphenyl)sulfonyl)-5,5-dimethyloctahydro-3aH-4,6-methanoisoindol-3a-yl)methyl (4-ethynylphenyl)carbamate], the IC50 [1] is reported as 14 ± 3 nM, the “body weight (in words)” value (SKOV-3 tumor) is reported as “no significantly negative impact on body weight” and the “overall survival (in words)” value (SKOV-3 tumor; Kaplan-Meier) is reported as “significantly improved the overall survival time”. The “tumor growth (in words)” value (SKOV-3 tumor; p < 0.001 vs control) was “significant inhibition of tumor growth”, the “clinical signs (in words)” value (C57Bl/6 mice; 60 mg/kg IP, individual animals, shortly after administration) was “piloerection, subdued behavior” and the “dose up to which no clinical signs were observed” value (C57Bl/6 mice; IP) was ≤ 30 mg/kg. The “dose up to which no clinical signs were observed” value (C57Bl/6 mice; PO) was “Up to 120 mg/kg”, the “tolerability (in words)” value (C57Bl/6 mice; up to 30 mg kg−1 IP, no clinical signs) was “well tolerated” and the “Max. degradation (%)” value ([2]; 10 nM) was 61 ± 12 (5) %. For the same compound, the “Max. degradation (%)” value ([2]; 100 nM) was 74 ± 13 (5) %.
